Experimental data from US11401516B2, “Channel modulators” (AUCKLAND UNISERVICES LIMITED, priority 2014, dated 2022).

How the values were obtained:
[1] = tested on: Cx43 hemichannel and pannexin channel mediated ATP release from hCMVEC cells; experiment: In vitro ischaemia injury ATP assay; format: cell-based, human; settings: for ATP release, percentage of the injury control: 2-hour injury
Procedure: Using an in vitro ischemia injury model, the Cx43 hemichannel and pannexin channel mediated ATP release was differentiated using the connexin hemichannel blocking mimetic peptide5 at 100 μM concentration (S. J. O'Carroll, et al., Cell communication & adhesion 15, 27 (May, 2008)) and 1 mM Probenecid (W. R. Silverman et al., The Journal of biological chemistry 284, 18143 (Jul. 3, 2009)).
Human cerebral microvascular endothelial cells (hCMVEC) were trypsinised (TrypLE Express, Life technologies) and plated at a density of 0.025×10^6 cells per well in a collagen-coated 12-well plate (1 μg/cm2) a day prior to the experiment. Cells were incubated in culture medium overnight. Hypoxic, acidic, ion-shifted Ringer injury solution that mimics ionic concentrations and acid-base shifts of the interstitial space in hypoxic-ischemic brains (A. Bondarenko, et al., Glia 34, 143 (Apr. 15, 2001)) was used to trigger hemichannel opening. The injury solution (in mM): 38 NaCl, 13 NaHCO3, 3 Na-gluconate, 65 K-gluconate, 38 NMDG-Cl, 1 NaH2PO4, 1.5 MgCl2, was bubbled in N2 gas (>99% purity, 20 L/min) for 5 minutes and pH adjusted to 6.6 using 5 M HCl. Control solution that mimics physiological conditions contained (in mM): 124 NaCl, 3 KCl, 26 NaHCO3, […], 1 NaH2PO4, 1.3 CaCl2, 1.5 MgCl2, and 10 Glucose, and pH 7.4 was adjusted using 5 M HCl (Bondarenko, 2001). […] Following a 2-hour injury the solutions were immediately placed on ice. In the injury and reperfusion model, hCMVEC cells were incubated in 500 μL of normal solution or injury solution for 2 hours at 37° C. in 95% O2 and 5% CO2. Following 2 hour injury, the solutions were discarded and replaced with 500 μL of the normal solution, or Tonabersat (10 μM) dissolved in normal solution, and were incubated for 2 hours at 37° C. in 95% O2 and 5% CO2. These solutions were also then immediately placed on ice. Peptide5 (100 μM)+/−Probenecid (1 mM) were used as controls for both injury and injury-reperfusion models. ATP concentration in the samples was determined using a Luciferin/luciferase bioluminescence reaction (ATP Determination Kit, Molecular Probes) and detected using a luminescence plate reader (VICTOR X, Perkin Elmer #2030-0010). Standard curves were generated in each experiment from an ATP standard (500 nM) to quantify the concentration of ATP in the test samples. The data is presented as mean±standard error relative to the injury or injury-reperfusion control. Statistically significant differences between samples were identified using one-way analysis of variance and Tukey's multiple comparisons test.

[2] = tested on: hCMVEC cells; experiment: Scrape load assay (Lucifer yellow dye transfer); format: cell-based, human
Procedure: In the below Examples 2, 4, 5, 8 and 10 using human cerebral microvascular endothelial cells (hCMVEC), cells were prepared by growing them in collagen coated (30 μg/mL) T25 or T75 flasks maintained in Medium M199 supplemented with 10% FCS, 1 μg/mL hydrocortisone, 3 ng/mL hFGF, 1 ng/mL hEGF, 10 μg/mL heparin, 1× penicillin streptomycin neomycin (Life Technologies), and cAMP (100 μL 100% cAMP to 100 mL media). Cells were maintained at 37° C. with 95% O2 and 5% CO2.
In this Example, human cerebral microvascular endothelial cells (hCMVEC) were grown in collagen coated (1 μg/mL) T25 flasks maintained in Medium M199 supplemented with 10% FBS, 1 μg/mL hydrocortisone, 3 ng/mL hFGF, 1 ng/mL hEGF, 10 μg/mL heparin and cAMP (100 μL 100% cAMP to 100 mL media) in a humidified atmosphere at 37° C. with 5% CO2. One day prior to experimentation, these cells were trypsinized and plated at a density of 4×10^5 cells/well in a collagen-coated 12 well-plate in the same medium. For treatments, cells were cultured in the presence of peptide5, a control gap junction channel blocker (carbenoxolone), or tonabersat for the respective time intervals prior to scrape dye loading. The blockers were also present in the respective scrape loading solutions.
For scrape loading the hCMVEC cells were washed three times with phosphate buffered saline (PBS) (without divalent cations). A solution of PBS+0.05% lucifer yellow was added to cells. The cells then received a scrape to the monolayer using a size 10 carbon steel surgical blade and incubated in the dark at 37° C. with 5% CO2 for 5 minutes. The cells were washed with PBS four times and then 1 mL of PBS added for fluorescent microscopy.
The live cells were then imaged on a Nikon TE2000E fluorescent microscope whilst maintained in a chamber heated to 37° C. with 5% CO2. Three images pairs were obtained at 10× magnification for each of a phase contrast image to view total cells and a fluorescent image to visualize Lucifer yellow using 488 nm excitation and a GFP filter block. Gap junctional communication was determined by counting the number of Lucifer yellow positive cells and presented as a percentage to the positive cells of the control group. Data was graphed as mean+standard error of the mean using Prism v5.02 software. Significance was determined through students two-tailed, unpaired, T Tests. *=p<0.05, **=[…], ***=p<0.001.
An in vitro scrape-loading assay with extracellular Lucifer Yellow (LY), a fluorescent dye that is transferred only through coupled GJs was performed to test whether Tonabersat inhibits GJ communication (M. H. el-Fouly, et al., Experimental cell research 168, 422 (February, 1987)). A single scrape wound was made to a confluent monolayer of hCMVEC cells to enable LY dye to gain access to the cytoplasm of cells at the edge of the wounded region and allow the dye to transfer to adjacent cells through GJs.

Question: Which “difference between CBX and 10 μM Tonabersat in 1 mM Probenecid” value [1] does the source give for `CC(=O)c1ccc2c(c1)[C@H](NC(=O)c1ccc(F)c(Cl)c1)[C@H](O)C(C)(C)O2` [Tonabersat, N-[(3S,4S)-6-acetyl-3-hydroxy-2,2-dimethyl-3,4-dihydrochromen-4-yl]-3-chloro-4-fluorobenzamide] here?
Answer: 14.9±4%

Question: And the “ATP release, percentage of the injury control” value (“ATP release, percentage” for short) ([1]; 0.1 μM Tonabersat in combination with 1 mM Probenecid)?
Answer: 85.9±2.4%

Question: And the “ATP release from hCMVEC cells” value ([1]; 0.1 μM to 100 μM Tonabersat in the absence of 1 mM Probenecid)?
Answer: did not reduce ATP release

Question: And the “ATP release, percentage” value ([1]; 1 μM Tonabersat in combination with 1 mM Probenecid)?
Answer: 75.9±2.3%

Question: What about the “ATP release, percentage” value ([1]; 10 μM Tonabersat in combination with 1 mM Probenecid) of the same molecule?
Answer: 58.5±1.9%

Question: And the “ATP release, percentage” value ([1]; 100 μM Tonabersat in combination with 1 mM Probenecid)?
Answer: 70.5±3.9%

Question: What about the “difference in inhibition, 10 μM versus 100 μM Tonabersat” value ([1]; each with 1 mM Probenecid) of the same molecule?
Answer: 12.1±3.2%

Question: And the “concentration at which GJs are uncoupled” value [2]?
Answer: ≥ 50 µM

Question: And the “time to gap junction uncoupling effect” value ([2]; 50 μM)?
Answer: ≤ 1 min

Question: And the “gap junction uncoupling (LY dye transfer)” value ([2]; 50 μM added immediately)?
Answer: did not significantly reduce GJ coupling

Question: What about the “gap junction uncoupling (LY dye transfer)” value ([2]; 50 μM added immediately, listed as tonabersat) of the same molecule?
Answer: statistically significant gap junction uncoupling effect

Question: And the “gap junction uncoupling (LY dye transfer)” value ([2]; 50 μM, 1 hour prior to the assay)?
Answer: did not significantly reduce GJ coupling

Question: What about the “LY positive cells compared to control” value ([2]; 50 μM, 2 hours) of the same molecule?
Answer: 72.5±7.4%

Question: What about the “LY positive cells compared to control” value ([2]; 50 μM, 6 hours) of the same molecule?
Answer: 62.8±7.4%

Question: And the “LY positive cells compared to control” value ([2]; 50 μM, 24 hours)?
Answer: 50.5±8.4%

Question: What about the “LY positive cells compared to control” value ([2]; 100 μM) of the same molecule?
Answer: 46.7±7.8%

Question: What about the “LY positive cells compared to control” value ([2]; 0.1, 1 and 10 μM, 2 hours) of the same molecule?
Answer: no significant reduction in LY positive cells

Question: And the “LY positive cells compared to control” value ([2]; 0.1, 1 and 10 μM, 24 hours)?
Answer: no significant reduction in LY positive cells
